Measured values from ChEMBL document CHEMBL1201862, “PubChem BioAssay data set” (2004).
Active and inactive are the calls of the source.

Legend:
[1] = target: T1, Alkaline phosphatase, tissue-nonspecific isozyme (Homo sapiens, UniProt P05186); test: activation of tissue-nonspecific alkaline phosphatase – biochemical, TNAP isozyme, human IAP uHTS hits, selectivity assay for human IAP activator project, dose response (AID 488886); assay type: functional;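 note: potency of compounds raising TNAP activity as a selectivity check on IAP activators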
T1 sequence (P05186 whole entry): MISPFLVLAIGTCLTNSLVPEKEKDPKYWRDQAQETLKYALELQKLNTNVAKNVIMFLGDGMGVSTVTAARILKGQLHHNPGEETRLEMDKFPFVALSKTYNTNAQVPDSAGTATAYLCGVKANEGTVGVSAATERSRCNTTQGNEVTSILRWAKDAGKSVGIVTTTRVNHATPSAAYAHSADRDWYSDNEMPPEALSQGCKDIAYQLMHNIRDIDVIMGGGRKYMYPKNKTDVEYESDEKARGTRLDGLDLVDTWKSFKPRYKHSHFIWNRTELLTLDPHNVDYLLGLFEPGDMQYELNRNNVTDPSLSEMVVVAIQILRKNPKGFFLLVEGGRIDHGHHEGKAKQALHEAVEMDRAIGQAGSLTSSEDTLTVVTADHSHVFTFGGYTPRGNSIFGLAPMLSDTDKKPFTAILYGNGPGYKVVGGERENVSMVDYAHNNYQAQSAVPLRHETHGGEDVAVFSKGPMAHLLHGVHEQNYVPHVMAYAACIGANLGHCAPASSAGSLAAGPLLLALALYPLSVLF

[2] = target: T2, Intestinal-type alkaline phosphatase (Homo sapiens, UniProt P09923); test: activation of human intestinal alkaline phosphatase – biochemical, luminescent, uHTS hits, set 2, dose response (AID 488817); assay type: functional;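 note: potency of activators that raise enzyme activity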
T2 sequence (P09923 whole entry): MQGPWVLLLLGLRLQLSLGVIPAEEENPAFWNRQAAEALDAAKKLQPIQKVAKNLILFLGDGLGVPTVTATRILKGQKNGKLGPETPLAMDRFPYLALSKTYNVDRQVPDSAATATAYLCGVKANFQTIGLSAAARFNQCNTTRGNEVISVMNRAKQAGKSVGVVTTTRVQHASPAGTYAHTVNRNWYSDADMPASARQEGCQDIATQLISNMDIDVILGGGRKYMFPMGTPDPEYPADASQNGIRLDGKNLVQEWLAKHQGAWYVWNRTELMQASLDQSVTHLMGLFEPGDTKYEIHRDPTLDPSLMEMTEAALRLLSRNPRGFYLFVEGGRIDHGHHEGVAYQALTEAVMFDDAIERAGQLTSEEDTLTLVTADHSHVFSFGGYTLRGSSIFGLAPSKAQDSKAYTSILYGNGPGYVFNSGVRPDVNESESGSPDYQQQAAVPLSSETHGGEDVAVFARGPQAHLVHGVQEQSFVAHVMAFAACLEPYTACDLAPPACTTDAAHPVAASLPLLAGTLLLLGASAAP

[3] = target: Intestinal-type alkaline phosphatase (Mus musculus, UniProt P24822); test: PubChem AID 488874; assay type: functional
Intestinal-type alkaline phosphatase (Mus musculus, UniProt P24822), sequence (P24822 whole entry): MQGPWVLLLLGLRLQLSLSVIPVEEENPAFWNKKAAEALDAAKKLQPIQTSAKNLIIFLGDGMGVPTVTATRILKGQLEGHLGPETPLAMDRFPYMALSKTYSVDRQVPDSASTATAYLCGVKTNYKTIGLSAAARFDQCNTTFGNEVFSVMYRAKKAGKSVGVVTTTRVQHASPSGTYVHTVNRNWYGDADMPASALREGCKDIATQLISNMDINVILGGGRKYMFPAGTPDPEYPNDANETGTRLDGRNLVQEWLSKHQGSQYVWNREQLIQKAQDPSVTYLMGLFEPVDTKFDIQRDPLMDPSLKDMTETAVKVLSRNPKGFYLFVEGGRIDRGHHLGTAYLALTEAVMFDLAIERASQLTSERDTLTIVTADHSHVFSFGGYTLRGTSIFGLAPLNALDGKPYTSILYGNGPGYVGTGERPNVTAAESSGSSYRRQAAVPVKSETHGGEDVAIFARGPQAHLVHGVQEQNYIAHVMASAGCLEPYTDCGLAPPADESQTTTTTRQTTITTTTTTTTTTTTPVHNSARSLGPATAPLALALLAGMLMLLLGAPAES

[4] = target: T2, Intestinal-type alkaline phosphatase; test: human intestinal alkaline phosphatase activators, dose response, biochemical, luminescence, uHTS hits (AID 463120); assay type: functional
[5] = target: T1, Alkaline phosphatase, tissue-nonspecific isozyme
[6] = cells; assay type: functional
[7] = HepG2 cell cytotoxicity, dose response, cytotoxicity control for non-replicating M. tuberculosis project (AID 489018); assay type: functional; conditions: Mycobacterium tuberculosis
[8] = Vero E6 cell cytotoxicity, dose response, cytotoxicity control for non-replicating M. tuberculosis project, secondary assay (AID 492998); assay type: functional, VeroE6; conditions: Vero C1008
[9] = target: CAAX prenyl protease 1 (Saccharomyces cerevisiae S288c, UniProt P47154); test: yeast CAAX protease Ste24 inhibition – biochemical, S. cerevisiae, plate reader, cherry-pick, dose response (AID 488815)
CAAX prenyl protease 1, sequence (P47154 whole entry): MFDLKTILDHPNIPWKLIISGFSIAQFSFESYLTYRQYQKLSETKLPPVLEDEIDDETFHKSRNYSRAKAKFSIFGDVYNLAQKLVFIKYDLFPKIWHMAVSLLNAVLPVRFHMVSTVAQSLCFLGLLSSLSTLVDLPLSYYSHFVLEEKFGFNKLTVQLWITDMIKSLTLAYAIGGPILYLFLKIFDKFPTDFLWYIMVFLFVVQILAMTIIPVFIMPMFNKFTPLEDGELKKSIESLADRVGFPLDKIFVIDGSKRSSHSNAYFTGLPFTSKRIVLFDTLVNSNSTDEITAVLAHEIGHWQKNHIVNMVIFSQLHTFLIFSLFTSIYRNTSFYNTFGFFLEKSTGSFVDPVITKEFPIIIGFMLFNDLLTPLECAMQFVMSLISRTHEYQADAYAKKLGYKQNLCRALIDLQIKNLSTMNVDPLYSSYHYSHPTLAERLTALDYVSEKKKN

[10] = target: T3, CAAX prenyl protease 2 (Homo sapiens, UniProt Q9Y256); test: inhibition of Ras-converting CAAX protease Rce1 – biochemical, yeast membranes, quenched-peptide fluorescence, cherry-pick, dose response (AID 588849)
T3 sequence (Q9Y256 whole entry): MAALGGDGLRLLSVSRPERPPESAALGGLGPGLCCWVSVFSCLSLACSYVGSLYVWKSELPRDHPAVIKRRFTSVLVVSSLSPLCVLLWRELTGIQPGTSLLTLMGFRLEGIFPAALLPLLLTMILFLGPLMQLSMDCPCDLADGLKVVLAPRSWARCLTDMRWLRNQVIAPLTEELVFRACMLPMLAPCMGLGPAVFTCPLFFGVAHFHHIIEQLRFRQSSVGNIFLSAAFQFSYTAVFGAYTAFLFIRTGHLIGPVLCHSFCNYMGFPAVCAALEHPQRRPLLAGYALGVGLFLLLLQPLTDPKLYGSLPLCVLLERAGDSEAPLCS

[11] = target: Trypsin (Sus scrofa, UniProt P00761); test: trypsin protease activity blockade – biochemical, quenched peptide fluorescence, cherry-pick, selectivity assay for Rce1 protease inhibitor project, dose response (AID 488789)
Trypsin, sequence (P00761 whole entry): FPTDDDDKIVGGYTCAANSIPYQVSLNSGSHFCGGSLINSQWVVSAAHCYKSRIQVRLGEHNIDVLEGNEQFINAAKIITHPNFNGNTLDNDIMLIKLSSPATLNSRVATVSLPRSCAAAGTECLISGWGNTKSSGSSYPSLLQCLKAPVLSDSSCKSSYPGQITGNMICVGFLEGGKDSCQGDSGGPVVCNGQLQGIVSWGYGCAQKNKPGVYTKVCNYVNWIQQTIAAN

[12] = tested on: HEK293; test: cells; assay type: functional, cell-based; conditions: Homo sapiens
[13] = tested on: HEK293; test: NOD2 signaling inhibitors in MDP-stimulated cells, cell-based, uHTS, luminescence (AID 2001); assay type: functional; conditions: Homo sapiens
[14] = tested on: HEK293; test: cells; conditions: Homo sapiens
[15] = tested on: HEK293; test: cells; assay type: functional, cell-based; conditions: Homo sapiens; remark: listed apart in the source
[16] = target: Nucleotide-binding oligomerization domain-containing protein 2 (Homo sapiens, UniProt Q9HC29); test: inhibition of NOD2-driven NF-kB reporter – cell-based, luminescence, uHTS, HEK293 (AID 1566); assay type: functional
Nucleotide-binding oligomerization domain-containing protein 2, sequence (Q9HC29 whole entry, the tested form may be a part): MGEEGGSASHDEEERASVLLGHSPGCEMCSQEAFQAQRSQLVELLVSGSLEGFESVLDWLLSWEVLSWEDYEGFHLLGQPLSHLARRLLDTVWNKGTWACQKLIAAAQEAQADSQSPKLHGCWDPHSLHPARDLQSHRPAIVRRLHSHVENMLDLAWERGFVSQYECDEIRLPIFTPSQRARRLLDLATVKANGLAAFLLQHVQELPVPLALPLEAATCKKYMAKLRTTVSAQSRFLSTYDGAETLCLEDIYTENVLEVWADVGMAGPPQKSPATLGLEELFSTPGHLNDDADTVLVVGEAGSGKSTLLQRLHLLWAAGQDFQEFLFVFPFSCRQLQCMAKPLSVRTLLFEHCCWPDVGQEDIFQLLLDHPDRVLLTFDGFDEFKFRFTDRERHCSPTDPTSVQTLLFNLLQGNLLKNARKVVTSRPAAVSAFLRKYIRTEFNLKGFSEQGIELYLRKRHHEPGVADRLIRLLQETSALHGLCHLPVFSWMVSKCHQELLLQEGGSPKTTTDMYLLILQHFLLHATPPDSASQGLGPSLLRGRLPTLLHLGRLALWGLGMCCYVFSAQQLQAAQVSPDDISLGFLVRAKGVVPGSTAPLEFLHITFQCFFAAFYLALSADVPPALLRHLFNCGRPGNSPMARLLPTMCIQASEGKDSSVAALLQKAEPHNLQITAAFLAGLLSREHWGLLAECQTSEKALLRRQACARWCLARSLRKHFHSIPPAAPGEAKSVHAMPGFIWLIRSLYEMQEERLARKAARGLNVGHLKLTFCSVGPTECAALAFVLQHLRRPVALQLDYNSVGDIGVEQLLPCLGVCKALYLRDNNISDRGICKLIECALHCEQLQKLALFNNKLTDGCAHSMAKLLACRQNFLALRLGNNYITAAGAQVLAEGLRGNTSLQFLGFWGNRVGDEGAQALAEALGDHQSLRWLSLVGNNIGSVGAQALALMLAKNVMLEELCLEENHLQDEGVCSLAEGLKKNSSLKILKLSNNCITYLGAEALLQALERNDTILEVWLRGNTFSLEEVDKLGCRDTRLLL

[17] = tested on: HEK293; test: inhibition of NOD1-driven NF-kB reporter – cell-based, luminescence, uHTS, primary screen (AID 1578); assay type: functional; conditions: Homo sapiens
[18] = target: Nucleotide-binding oligomerization domain-containing protein 1 (Homo sapiens, UniProt Q9Y239); test: blockers of NOD1 pathway activity – revised, SAR follow-up (AID 2333); assay type: functional
Nucleotide-binding oligomerization domain-containing protein 1, sequence (Q9Y239 whole entry, the tested form may be a part): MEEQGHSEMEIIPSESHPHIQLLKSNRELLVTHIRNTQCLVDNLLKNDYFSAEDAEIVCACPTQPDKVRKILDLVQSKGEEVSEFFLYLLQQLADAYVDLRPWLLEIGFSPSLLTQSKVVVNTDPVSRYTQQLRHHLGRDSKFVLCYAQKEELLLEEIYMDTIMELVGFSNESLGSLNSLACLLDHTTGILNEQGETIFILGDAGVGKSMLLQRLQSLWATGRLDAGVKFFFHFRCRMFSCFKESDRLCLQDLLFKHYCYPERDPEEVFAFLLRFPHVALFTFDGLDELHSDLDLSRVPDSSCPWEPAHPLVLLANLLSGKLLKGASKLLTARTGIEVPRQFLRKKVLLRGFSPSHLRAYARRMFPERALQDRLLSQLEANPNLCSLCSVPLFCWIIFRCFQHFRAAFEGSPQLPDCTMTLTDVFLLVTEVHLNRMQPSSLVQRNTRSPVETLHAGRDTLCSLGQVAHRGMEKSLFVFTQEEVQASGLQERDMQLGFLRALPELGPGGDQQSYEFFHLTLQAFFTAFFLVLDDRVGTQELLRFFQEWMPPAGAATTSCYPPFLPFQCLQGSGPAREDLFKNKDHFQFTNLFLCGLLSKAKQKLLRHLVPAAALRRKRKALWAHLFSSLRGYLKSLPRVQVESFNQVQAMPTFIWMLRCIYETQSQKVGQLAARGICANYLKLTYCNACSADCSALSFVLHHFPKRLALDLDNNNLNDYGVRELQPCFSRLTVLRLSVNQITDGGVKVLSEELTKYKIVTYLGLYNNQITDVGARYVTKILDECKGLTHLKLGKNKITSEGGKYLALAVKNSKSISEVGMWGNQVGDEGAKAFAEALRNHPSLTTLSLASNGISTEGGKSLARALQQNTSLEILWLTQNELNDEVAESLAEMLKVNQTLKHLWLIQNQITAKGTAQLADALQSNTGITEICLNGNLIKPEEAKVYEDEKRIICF

[19] = target: Tumor necrosis factor (Homo sapiens, UniProt P01375); test: analog potency on TNFa NF-kB signaling – cell-based, revised, SAR follow-up (AID 2337); assay type: functional
Tumor necrosis factor, sequence (P01375 whole entry): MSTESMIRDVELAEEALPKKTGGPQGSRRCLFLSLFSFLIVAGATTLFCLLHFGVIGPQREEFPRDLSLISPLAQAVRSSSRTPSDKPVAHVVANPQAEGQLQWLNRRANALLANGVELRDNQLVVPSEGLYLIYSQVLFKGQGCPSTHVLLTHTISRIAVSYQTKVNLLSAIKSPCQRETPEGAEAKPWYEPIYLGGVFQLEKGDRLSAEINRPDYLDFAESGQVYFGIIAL

[20] = tested on: HEK293; test: cells; assay type: functional, cell-based; conditions: Homo sapiens; remark: listed apart in the source

CCCOCC(O)CC(CC)C(=O)NNC(=S)Nc1ccccc1 (stereo not given)
EC50 [1]: 16.2 µM (active)
EC50 [2]: 15.1 µM (active)
IC50 [3]: 69.5 µM (active)
EC50 [4]: 14.1 µM (active)
EC50 [5]: > 100 µM (not active)

Cc1nn2c(NCCN(C)C)c3c(nc2c1-c1ccccc1)CCCC3
IC50 [6]: 5.84 µM (active)
CC50 [7]: 16.4 µM (active)
CC50 [8]: > 20 µM (active)
AC50 [9]: 4.57 µM (active)
AC50 [10]: 14.3 µM (active)
AC50 [11]: 12.7 µM (active)

O=C(Nc1nnc(S(=O)(=O)N2CCCCCC2)s1)c1ccc(Br)cc1
IC50 [12]: > 20 µM (inactive)
IC50 [13]: 18.1 µM (inactive)
IC50 [14]: > 20 µM (inactive)
IC50 [15]: 14.2 µM (active)
EC50 [16]: 10.4 µM (active)
EC50 [17]: 1.56 µM (active)
IC50 [18]: 5.53 µM (active)
IC50 [19]: > 20 µM (inactive)
IC50 [20]: > 20 µM (inactive)
